Reference: paper PMC6095594, “Pre-clinical evaluation of quinoxaline-derived chalcones in tuberculosis” (PLoS ONE, 2018)
Converted amounts (≈) assume the structure as drawn. Read-outs that look alike come from different tables or passages of the source.

Experiments:
S. typhimurium TA98 = test: Salmonella/microsome mutagenicity test; details: TA98, +S9, positive control 5 μg/plate
Protocol: (§1) Salmonella typhimurium strains TA98, TA97a, TA100, TA1535, and TA102 were provided by MOLTOX® (Molecular Toxicology Inc. USA). Mutagenicity was assayed according to the pre-incubation procedure following the recommendation described in Mortelmans and Zieger (2000). […] Briefly, 100 μL of test bacterial cultures (1–2 x 10^9 cells/mL) were incubated at 37 °C with different concentrations of N9 (10–400 μg/plate) in the presence or absence of S9 mix, for 20 min, without shaking. […] 2-aminoanthracene (2-AA, 5 μg/plate) was used as positive control for all strains in the presence of metabolic activation (with S9 mix). […] Plates were incubated in the dark at 37 °C for 48 h before counting the revertant colonies. Assays were repeated twice and the plating for each concentration was conducted in triplicate. Data were evaluated by one-way analysis of variance (ANOVA), followed by Dunnett's post-test, using GraphPad Prism 5.0 (GraphPad, San Diego, CA, USA).

S. typhimurium TA102 = test: Salmonella/microsome mutagenicity test; details: TA102, +S9, positive control 5 μg/plate
Protocol: as §1

S. typhimurium TA97a = test: Salmonella/microsome mutagenicity test; details: +S9, positive control 5 μg/plate
Protocol: as §1

S. typhimurium TA1535 = test: Salmonella/microsome mutagenicity test
Protocol: (§2) Salmonella typhimurium strains TA98, TA97a, TA100, TA1535, and TA102 were provided by MOLTOX® (Molecular Toxicology Inc. USA). Mutagenicity was assayed according to the pre-incubation procedure following the recommendation described in Mortelmans and Zieger (2000). […] Briefly, 100 μL of test bacterial cultures (1–2 x 10^9 cells/mL) were incubated at 37 °C with different concentrations of N9 (10–400 μg/plate) in the presence or absence of S9 mix, for 20 min, without shaking. […] Plates were incubated in the dark at 37 °C for 48 h before counting the revertant colonies. Assays were repeated twice and the plating for each concentration was conducted in triplicate. Data were evaluated by one-way analysis of variance (ANOVA), followed by Dunnett's post-test, using GraphPad Prism 5.0 (GraphPad, San Diego, CA, USA).

S. typhimurium TA100 = test: Salmonella/microsome mutagenicity test
Protocol: as §2

[1] = tested on: M. tuberculosis pNIP::control; test: microbe, parasite or virus in culture; assay type: cell-based; details: Mycobacterium tuberculosis; pNIP::control (empty vector)
[2] = tested on: M. tuberculosis pNIP::KatG(WT); test: microbe, parasite or virus in culture; assay type: cell-based; details: Mycobacterium tuberculosis
M. tuberculosis H37Rv = test: Checkerboard assay, two-drug combination with REMA readout; assay type: cell-based, Mycobacterium tuberculosis; details: for MIC: Mycobacterium tuberculosis, read-out: MIC Alone, checkerboard, drug alone, three independent experiments
[3] = tested on: M. tuberculosis H37Rv strain; test: microbe, parasite or virus in culture; assay type: cell-based
[4] = tested on: M. tuberculosis pan-susceptible clinical isolate CDCT-28; test: microbe, parasite or virus in culture; assay type: cell-based; details: Mycobacterium tuberculosis
[5] = tested on: M. tuberculosis H37Rv strain; parameters: method as in Abbadi, 2018; details: ref Abbadi, 2018; cited from earlier work
[6] = tested on: M. tuberculosis pan-susceptible clinical isolate CDCT-28; details: cited from earlier work
[7] = TA1535, +S9, positive control 5 μg/plate
[8] = TA100, +S9, positive control 5 μg/plate
[9] = Mycobacterium tuberculosis, H37RV, read-out: MIC
[10] = TA1535, -S9, positive control 1 μg/plate
[11] = TA100, -S9, positive control 1 μg/plate

## Nc1ccc2cc3ccccc3cc2c1 [2-AA, 2-aminoanthracene, reference compound]
S. typhimurium TA98
  MI: mutagenic index: 39.65
  Number of revertants/plate: 1586.0±161.2 Rev/plate
S. typhimurium TA102
  MI: mutagenic index: 3.62
  Number of revertants/plate: 1354.0±21.1 Rev/plate
S. typhimurium TA97a
  MI: mutagenic index: 6.44
  Number of revertants/plate: 742.0±59.4 Rev/plate
S. typhimurium TA1535; [7]
  MI: mutagenic index: 6.96
  Number of revertants/plate: 58.0±12.7 Rev/plate
S. typhimurium TA100; [8]
  MI: mutagenic index: 11.03
  Number of revertants/plate: 1279.0±50.2 Rev/plate

## NNC(=O)c1ccncc1 [INH, isoniazid, reference compound]
[1]
  MIC: < 0.2 µg/mL
[2]
  MIC: < 0.2 µg/mL
M. tuberculosis H37Rv; H37RV
  MIC Alone: 0.16 µg/mL
  MIC: 0.31 µg/mL
[3]; [9]
  MIC: 0.39 µg/mL (≈ 2.84 µM)
[4]
  MIC: 0.39 µg/mL (≈ 2.84 µM)

## COc1c(N2C[C@@H]3CCCN[C@@H]3C2)c(F)cc2c(=O)c(C(=O)O)cn(C3CC3)c12 [MFX, moxifloxacin, reference compound]
M. tuberculosis H37Rv; H37RV
  MIC: 0.15 µg/mL
M. tuberculosis H37Rv; all three experiments
  Improvement of MIC of MFX in the presence of N9: 4 fold
[5]
  MIC: <0.2 µg/mL

## O=C(/C=C/c1ccc2nccnc2c1)c1ccc2c(c1)OCO2 [N3]
[3]; [9]
  MIC: > 25 µg/mL

## O=C(/C=C/c1ccc2nccnc2c1)c1ccc(Br)cc1 [N4]
[3]; [9]
  MIC: > 25 µg/mL

## O=C(/C=C/c1ccc2nccnc2c1)c1ccccc1O [N6]
[3]; [9]
  MIC: > 5 µg/mL

## O=C(/C=C/c1ccc2nccnc2c1)c1ccc([N+](=O)[O-])cc1 [N7]
[3]; [9]
  MIC: > 25 µg/mL

## COc1cc(C(=O)/C=C/c2ccc3nccnc3c2)cc(OC)c1OC [N15]
[3]; H37Rv
  MIC: 6.25 µg/mL (≈ 17.8 µM)
[3]; [9]
  MIC: 3.13 to 12.5 µg/mL (≈ 8.93 to 35.7 µM)
[4]
  MIC: 3.13 µg/mL (≈ 8.93 µM)

## COc1cc(OC)c(C(=O)/C=C/c2ccc3nccnc3c2)cc1OC [N17]
[3]; [9]
  MIC: > 25 µg/mL

## COc1ccccc1C(=O)/C=C/c1ccc2nccnc2c1 [N19]
[3]; [9]
  MIC: > 25 µg/mL

## COc1cc(C(=O)/C=C/c2ccc3nccnc3c2)cc(OC)c1O [N20]
[3]; [9]
  MIC: > 25 µg/mL

## COc1cccc(C(=O)/C=C/c2ccc3nccnc3c2)c1 [N23]
[3]; H37Rv
  MIC: 5 µg/mL (≈ 17.2 µM)
[3]; [9]
  MIC: 3.13 to 12.5 µg/mL (≈ 10.8 to 43.1 µM)
[4]
  MIC: 2.5 µg/mL (≈ 8.61 µM)

## N#Cc1ccc(C(=O)/C=C/c2ccc3nccnc3c2)cc1 [N33]
[3]; [9]
  MIC: > 25 µg/mL

## N#Cc1cccc(C(=O)/C=C/c2ccc3nccnc3c2)c1 [N34]
[3]; [9]
  MIC: > 25 µg/mL

## COc1ccc(C(=O)/C=C/c2ccc3nccnc3c2)c(OC)c1OC [N36]
[3]; [9]
  MIC: 25 µg/mL (≈ 71.4 µM)

## [N-]=[N+]=[N-].[Na+] [NaN3, sodium azide, reference compound]
S. typhimurium TA1535; [10]
  MI: mutagenic index: 100.0
  Number of revertants/plate: 1133.0±179.6 Rev/plate
S. typhimurium TA100; [11]
  MI: mutagenic index: 6.03
  Number of revertants/plate: 695.5±40.3 Rev/plate

## CO[C@H]1/C=C/O[C@@]2(C)Oc3c(C)c(O)c4c(O)c(c(/C=N/N5CCN(C)CC5)c(O)c4c3C2=O)NC(=O)/C(C)=C\C=C\[C@H](C)[C@H](O)[C@@H](C)[C@@H](O)[C@@H](C)[C@H](OC(C)=O)[C@@H]1C [RIF, Rifampicin]
[6]
  MIC: <0.2 µg/mL
[5]
  MIC: <0.2 µg/mL
